“And” between values parts separate entries of the source, which are not always exact repeats. Equal values may be shown once. Read-outs that look alike come from different tables or passages of the source.
Columns and labels:
Assay type in all cases: physicochemical
[1] = Aerosol performance of dry powder formulation for inhalation by MSLI (Multi Step Liquid Impinger); conditions: dose 8 mg
Text: As discussed below Andolast disodium salt as Form A can be formulated according to several pharmaceutical compositions.

[2] = Solubility of the disodium salt in water; conditions: 25° C.
Experimental: N-4-(1H-tetrazol-5-yl)phenyl-4-(1H-tetrazol-5-yl)benzamide is prepared as described in WO 90/09989, Example 13 (herein incorporated by reference). The disodium salt of N-4-(1H-tetrazol-5-yl)phenyl-4-(1H-tetrazol-5-yl)benzamide can be prepared directly as the pentahydrate or precipitated as an undefined mixture of hydrates and then converted into the pentahydrate (Form A), by re-crystallization or by phase equilibration (slurry conversion: slurry in an appropriate solvent mixture). In both cases the disodium salt is obtained by adding to a suspension in water of N-4-(1H-tetrazol-5-yl)phenyl-4-(1H-tetrazol-5-yl)benzamide, an amount of aqueous sodium hydroxide or sodium alkoxide, ranging from 2.0 to 2.2 equivalents, preferably 2.1 equivalents, being sodium methoxide, sodium ethoxide and sodium isopropoxide the preferred alkoxide, at a temperature ranging from +15° to +40° C. […] The resulting mixture is stirred until the solid is completely dissolved, then the pH of the solution is carefully adjusted to 6.5-7.5, by addition of diluted hydrochloric acid, filtered and concentrated under vacuum, at a temperature not exceeding +60° C. […]

[3] = Moisture sorption/desorption by Differential Vapor Sorption (DVS); conditions: for R.H. at which substantial desorption (loss of water) starts: DVS scanning mode, 5% ΔR.H. per hour
Experimental: The moisture sorption/desorption behavior was analyzed for different solids using Differential Vapor Sorption (DVS) technique. In FIG. 8 is reported as an example the sorption/desorption isotherms for batch B/6272. […] Though the different batches were not characterized by exactly matching DVS diagrams all reached the about 20% water content after an appropriate time.
This surprising stability to moisture of Form A is also confirmed by DVS experiments. In the scanning mode, water is only lost when about 0% R.H. is reached. Moisture sorption/desorption behavior for the pentahydrate is reported in Example 9 (FIG. 14).
Water vapor sorption/desorption was analyzed using Surface Measurement System Ltd. DVS-1 apparatus. The sample was allowed to equilibrate at 50% R.H. before starting a predefinite humidity program, scanning with 5% ΔR.H. hour^−1 and with several “isohumid” equilibration periods (see FIG. 14 for details). The water content of the sample used for DVS was calculated on the basis of KF analysis, while crystalline form was assessed by FT-Raman spectroscopy. The DVS plots of water content vs. R.H. and R.H. vs. time are reported for Andolast disodium pentahydrate (Form A) in FIG. 14. It can be seen from the DVS plot that substantial desorption starts only at almost 0% RH.

[4] = Stability of crystalline form to jet mill micronization (Example 11); conditions: MC Jet Mill, nitrogen, 12 bar, about 10 g/30 sec, without cooling
Text: In Example 11 it is reported how Form A can be successfully micronized using conditions identical to the ones used for the micronization of the batch B/7081 (see FIGS. 7a and 7b for XRPD spectra) without altering XRPD and spectroscopic characteristics (Ft-Raman and FT-IR), thus proving Form A stability and crystalline form consistency also after the micronization step affording the suitable drug substance for preparing dry powder and pressurized HFA aerosols formulations for inhalation.
Andolast disodium form A is micronized, without cooling, using an MC Jet Mill apparatus, and nitrogen as carrier gas, at 12 bar and with a feeding rate of about 10 g/30 sec.

[5] = Storage of open samples in humidity controlled chamber (stability to moisture, Example 8); conditions: 9 days; for FT-Raman / KF (water content) / XRPD: open sample
Text: The list of improved physical and mechanical characteristics reported below is intended at documenting representative examples of advantages Form A is endowed with over the undefined hydrated forms obtained according to uncontrolled conditions.
samples of Form A were stored, as open samples, in an humidity controlled chamber for 9 days, in Table 5 water content (KF), XRPD and FT-Raman spectra at the end-point of the experiment are reported vs. R.H. […]

[6] = ICH accelerated stability testing
[7] = Stability to temperature and mechanical mill (Example 10); conditions: open sample 1 day at 50° C., then milled 10 min at 24 s−1 in ball swing mill
Experimental: about 1 g of Andolast disodium salt Form A was stored, as open sample, for 1 day at 50° C. The product was then milled for 10 min. at 24 s−1 in a ball swing mill. A sample was then analyzed by KF and FT-Raman spectroscopy.

[8] = active ingredient/excipient 1:1, Mean of 6 MSLI runs, listed as Form A obtained at Example 3
[9] = active ingredient/excipient 1:1, capsule inhaler, single MSLI runs 1-6, listed as Form A obtained at Example 3
[10] = active ingredient/excipient 1:1, Mean of 6 MSLI runs
[11] = active ingredient/excipient 1:1, capsule inhaler, single MSLI runs 1-6

SMILES: O=C(Nc1ccc(-c2nn[n-]n2)cc1)c1ccc(-c2nn[n-]n2)cc1.[Na+].[Na+] [Example 3]
- DD (Delivered Dose) [1, 8]: 7.46 mg
- FPD (Fine Particle Dose) [1, 8]: 2.16 mg
- FPF (Fine Particle Fraction) [1, 8]: 29%
- MD (Metered Dose) [1, 8]: 8.48 mg
- MMAD [1, 8]: 3.8 μm
- DD (Delivered Dose) [1, 9]: 7.25 mg and 7.54 mg and 7.47 mg and 7.33 mg and 7.71 mg and 7.43 mg
- FPD (Fine Particle Dose) [1, 9]: 1.96 mg and 2.07 mg and 2.58 mg and 1.97 mg and 2.18 mg and 2.20 mg
- FPF (Fine Particle Fraction) [1, 9]: 27% and 35% and 28% and 30%
- MD (Metered Dose) [1, 9]: 8.31 mg and 8.67 mg and 8.46 mg and 8.33 mg and 8.49 mg and 8.60 mg
- MMAD [1, 9]: 3.8 μm and 4.0 μm and 3.6 μm and 3.9 μm

SMILES: O=C(Nc1ccc(-c2nn[n-]n2)cc1)c1ccc(-c2nn[n-]n2)cc1.[Na+].[Na+] [B/7080, reference compound]
- DD (Delivered Dose) [1, 10]: 6.63 mg
- FPD (Fine Particle Dose) [1, 10]: 1.12 mg
- FPF (Fine Particle Fraction) [1, 10]: 17%
- MD (Metered Dose) [1, 10]: 7.55 mg
- MMAD [1, 10]: 5.2 μm
- DD (Delivered Dose) [1, 11]: 6.66 mg and 5.96 mg and 6.77 mg and 7.01 mg and 6.57 mg and 6.81 mg
- FPD (Fine Particle Dose) [1, 11]: 0.96 mg and 0.99 mg and 1.21 mg and 1.01 mg and 1.23 mg and 1.30 mg
- MD (Metered Dose) [1, 11]: 7.60 mg and 7.29 mg and 7.61 mg and 7.85 mg and 7.65 mg
- MMAD [1, 11]: 5.3 μm and 5.2 μm and 5.1 μm and 5.4 μm

SMILES: O=C(Nc1ccc(-c2nn[n-]n2)cc1)c1ccc(-c2nn[n-]n2)cc1.[Na+].[Na+] [Andolast disodium salt, N-4-(1H-tetrazol-5-yl)phenyl-4-(1H-tetrazol-5-yl)benzamide disodium salt]
- solubility [2]: ~150 mg/mL

SMILES: O=C(Nc1ccc(-c2nn[n-]n2)cc1)c1ccc(-c2nn[n-]n2)cc1.[Na+].[Na+] [B/6272, reference compound]
- hygroscopic character of the solid [3]: strongly hygroscopic
- water content at plateau of moisture sorption ([3]; DVS, continuous sorption of moisture): about 20%

SMILES: O=C(Nc1ccc(-c2nn[n-]n2)cc1)c1ccc(-c2nn[n-]n2)cc1.[Na+].[Na+] [Form A, N-4-(1H-tetrazol-5-yl)phenyl-4-(1H-tetra-zol-5yl)benzamide disodium salt]
- changes in XRPD, FT-IR and FT-Raman versus not-micronized starting material [4]: no changes were observed
- Stability to moisture (water content and solid form) ([5]; R.H. from 12% to 85%, room temperature): did not alter the water content of any sample, neither the solid form
- FT-Raman ([5]; RH 12%): Complies with Form A
- KF (water content) ([5]; RH 12%): 19.26%
- XRPD ([5]; RH 12%): Complies with Form A
- FT-Raman ([5]; RH 22%): Complies with Form A
- KF (water content) ([5]; RH 22%): 19.36%
- XRPD ([5]; RH 22%): Complies with Form A
- FT-Raman ([5]; RH 32%): Complies with Form A
- KF (water content) ([5]; RH 32%): 19.34%
- XRPD ([5]; RH 32%): Complies with Form A
- FT-Raman ([5]; RH 53%): Complies with Form A
- KF (water content) ([5]; RH 53%): 19.35%
- XRPD ([5]; RH 53%): Complies with Form A
- FT-Raman ([5]; RH 65%): Complies with Form A
- KF (water content) ([5]; RH 65%): 19.25%
- XRPD ([5]; RH 65%): Complies with Form A
- FT-Raman ([5]; RH 75%): Complies with Form A
- KF (water content) ([5]; RH 75%): 19.22%
- XRPD ([5]; RH 75%): Complies with Form A
- FT-Raman ([5]; RH 85%): Complies with Form A
- KF (water content) ([5]; RH 85%): 19.43%
- XRPD ([5]; RH 85%): Complies with Form A
- stability (physical form and chemical stability) [6]: confirmed its stability
- R.H. at which substantial desorption (loss of water) starts ([3]; disodium salt): about 0 % RH
- R.H. at which substantial desorption (loss of water) starts ([3]; listed as Andolast disodium pentahydrate (Form A), disodium salt): ~0 % RH
- hygroscopic character of the solid ([3]; listed as Andolast disodium Form A, disodium salt): not hygroscopic
- KF (water content) [7]: 19.53%
- crystalline change by Raman spectra [7]: no crystalline change occurred
